Tests used:
[1] = system: AhR in FL83B cells; assay: AhR and pAhR expression in hepatocytes (western blot); format: cell-based, mouse
Description: Cells. Murine hepatocytes (FL83B) and human hepatocytes (HepG2) (obtained from the American Type Culture Collection, ATCC®, Manassas, Va.) were grown in tissue culture plates with F12K medium (Thermo Fisher Scientific,) supplemented with 10% heat-inactivated fetal bovine serum (FBS), 100 U ml-1 penicillin, and […] streptomycin at 37° C. in a 5% CO2 atmosphere. Human monocytes (U937) were grown in RPMI 1640 medium (Thermo Fisher Scientific, Waltham, Mass.) supplemented with 10% FBS. For fecal exosomes (with or without PKH26 labeling) treatment for FL83B and HepG2 cells, 2×10^4 cells were seeded into six well plates. After achieving 50-60% confluence, fecal exosomes (numbers indicated in Figures) were added and incubated for 16 hours at 37° C. in a 5% CO2 atmosphere. Cells were washed with PBS and processed for imaging, RNA isolation, and protein extraction. […]
Western blot analysis. […] Protein concentrations were determined using the BioRad Protein Assay Reagent. […] Individual protein was detected with specific antibodies and visualized by infrared fluorescent secondary antibodies (Table 2). The protein bands were visualized and analyzed on an Odyssey CLx Imager (LiCor Inc, Lincoln, Nebr.).

[2] = system: mouse hepatocytes (FL83B cells); assay: Glucose uptake assay (Glucose Uptake-Glo); format: cell-based; settings: two-log difference in PC (34:2) concentration
Description: Glucose uptake assay. Glucose uptake was performed using the Glucose Uptake-Glo™ Assay from Promega (J1341) in accordance with the manufacturer's instructions. Briefly, 2×10^4 cells were seeded into 96 well tissue culture plate in complete medium. […] Cells were treated with 1 nM of insulin for an additional 1 hour. Medium was removed and cells were washed twice with PBS. 50 μof 2-deoxyglucose (DG, 1 mM per well) was added and incubated for 1 hour at room temperature (RT). 25 μl of stop buffer added and mixed briefly, then 25 μl of neutralization buffer added and shaken briefly. 100 μl of 2DG6P detection reagent was added and the mixture shaken for 3 hours at RT. Luminescence was recorded with 135 gain efficiency using a SYNERGY H1 (BioTek Instruments, Inc., Winooski, Vt.) luminometer. […] These supernatants (0.5 ml) were further used in hepatocyte (cultured with 0.5×10^6 fecal exosomes) cultures to determine the which cytokines were induced by fecal exosome treatment of macrophages.

## phosphatidylcholine [PC (34:2)]
[1]
  AhR expression in hepatocytes: confirmed in a PC-dose dependent manner
[2]
  glucose uptake, dose dependence: inhibited in a PC-dose dependent manner
